Assay results published in patent US9499823B2, “Constructs expressing chimeric receptors and use thereof for the controlled activation of defence response to pathogens in plants” (priority 2009, dated 2016).
Entries after “also recorded” stand apart in the source; their conditions may differ.

B1: WEG: chimeric receptor: WAK1 ectodomain fused to the TM-iJM-kinase portion of EFR, GFP-fused (protein)
chain: QHQPGENCQNKCGNITIEYPFGISSGCYYPGNESFSITCKEDRPHVLSDIEVANFNHSGQLQVLLNRSSTCYDEQGKKTEEDSSFTLENLSLSANNKLTAVGCNALSLLDTFGMQNYSTACLSLCDSPPEADGECNGRGCCRVDVSAPLDSYTFETTSGRIKHMTSFHDFSPCTYAFLVEDDKFNFSSTEDLLNLRNVMRFPVLLDWSVGNQTCEQVGSTSICGGNSTCLDSTPRNGYICRCNEGFDGNPYLSAGCQDVNECTTSSTIHRHNCSDPKTCRNKVGGFYCKCQSGYRLDTTTMSCKRKEVVSGICIGIASLLLIIIVASLCWFMKRKKKNNASDGNPSDSTTLGMFHEKVSYEELHSATSRFSSTNLIGSGNFGNVFKGLLGPENKLVAVKVLNLLKHGATKSFMAECETFKGIRHRNLVKLITVCSSLDSEGNDFRALVYEFMPKGSLDMWLQLEDLERVNDHSRSLTPAEKLNIAIDVASALEYLHVHCHDPVAHCDIKPSNILLDDDLTAHVSDFGLAQLLYKYDRESFLNQFSSAGVRGTIGYAAPEYGMGGQPSIQGDVYSFGILLLEMFSGKKPTDESFAGDYNLHSYTKSILSGCTSSGGSNAIDEGLRLVLQVGIKCSEEYPRDRMRTDEAVRELISIRSKFFSSKTTITESPRDAPQSSPQEWMLNTDMHTM
modifications: left off: large carriers

Legend:
[1] = tested on: Arabidopsis ecotype Wassilewskija (Ws-0) leaves; assay: H2O2 accumulation (DAB staining) and callose deposition (aniline blue) in stably transformed Arabidopsis Ws-0; format: cell-based, Arabidopsis thaliana; settings: flg22 1 μM, 1 h, stably transformed Ws-0 plants
Method: A) Histochemical analysis of defense responses upon 1 h of treatment with H2O, flg22 (1 μM) or elfl8 (10 μM).
(§1) 3,3′-diaminobenzidine (DAB) staining, callose deposition and gene resistance analysis were assayed as described (Galletti et al., 2008). For measuring active oxygen species released by tobacco agroinfiltrated plants after elicitor treatment, the authors used a modified luminol-dependent assay (Gomez et al., 1999). Slices, corresponding to approximately 30 mg fresh weight, were transferred to assay tubes containing 1 μM flg22 or 10 μM elfl8 in aqueous solution supplied with 40 μM luminol (SIGMA). Chemo-luminescence was measured in a liquid scintillation counter (LS-6500, Beckman) after 5 and 15 min upon addition of elicitors.
(§2) Fluorescent eJMC and FLS2 were also stably expressed in transgenic Arabidopsis ecotype Wassilewskija (Ws-0), which carries EFR but lacks a flg22 perception system (Gomez-Gomez et al., 1999, Bauer et al., 2001). Transformed T1 plants expressing the proteins, named eJMC plants and FLS2 plants, respectively, were selected by confocal microscopy analysis of adult rosette leaves. […] Fluorescence was detected only in adult rosette leaves, likely due to a low expression level of the receptor at the different developmental stages.

[2] = tested on: RetOx, CYP81F2 and PAD3 transcripts; assay: Elicitor-induced accumulation of Ret-Ox, CYP81F2 and PAD3 transcripts, semi-quantitative PCR; format: cell-based, Arabidopsis thaliana; settings: flg22 1 μM, 30 minutes, stably transformed Ws-0 plants
Method: B) Elicitor induced accumulation of Ret-Ox, CYP81F2 and PAD3 transcripts analysed by semi-quantitative PCR, using the UBQ5 gene for normalization. Leaves were incubated with water, flg22 (1 μM), elfl8 (10 μM) or a generic peptide (10 μM) for 30 minutes. The experiment was repeated three times with similar results. The same experiment was performed in a second independent transgenic line expressing eJMC with similar results.
as §1, §2

[3] = tested on: transgenic Arabidopsis Ws-0 seedlings; assay: Seedling growth inhibition by flg22 in transgenic Ws-0; format: in vivo, Arabidopsis thaliana; settings: data not shown
Excerpt: as §2

[4] = tested on: Pseudomonas syringae DC3000; assay: Pseudomonas DC3000 infection of Arabidopsis Ws-0 plants by spraying; format: in vivo; settings: transgenic Ws-0 plants vs Ws-0 wild type, 4 days post infection
Excerpt: C) Pseudomonas DC3000 infections. (Left Panel) Symptoms disease of wild type and transformed plants after 4 days post infection. (Right panel) Growth of Pseudomonas syringae DC3000 after 4 day post infection. ***, p<0.005.
The authors therefore infected A. thaliana plants by spraying Pst DC3000 bacteria onto leaf surfaces. […] Higher resistance of eJMC plants, compared to Ws-0 wild-type plants, was found in all of three independent experiments.

[5] = tested on: At3g22270 and At4g37640 transcripts; assay: Elicitor-induced At3g22270 and At4g37640 expression, semi-quantitative PCR, Arabidopsis Col-0 / Col-0 efr; format: cell-based, Arabidopsis thaliana; settings: transgenic Col-0 efr plants
Method: (A) Induction of ethylene biosynthesis in agroinfiltrated tobacco explants expressing EFR, WAK1, WEG and EWAK. […] Agroinfiltrated leaf tissues expressing EFR or WEG and elicited with OGs or elfl8 respectively, represented our negative control. Values are means±s.e.m. (N=3). (B) Elicitor-induced gene expression in untransformed Col-0 and Col-0 efr plants, and in transgenic Arabidopsis Col-0 efr plants stably expressing WEG. Accumulation of At3g22270 and At4g37640 transcripts was analysed by semi-quantitative PCR, using the UBQ5 gene for normalization. Adult leaves were syringe-infiltrated with water, OGs (25 μg/ml) or elfl8 (10 μM) for 3 h. The experiment was repeated three times with similar results. The same experiment was performed in a second independent transgenic line expressing WEG with similar results.
The ability of WEG to activate downstream responses upon stimulation with OGs was analysed in agroinfiltrated tobacco.

B. cinerea = assay: Lesion development in Arabidopsis plants inoculated with B. cinerea; format: in vivo; settings: transgenic Arabidopsis vs Col-0 or Col-0 efr, 48 h post-inoculation
Method: (A) Growth of A. tumefaciens in N. tabacum tissues transiently expressing receptor proteins. Tobacco leaves were infiltrated with Agrobacterium carrying the indicated receptor constructs and the number of Agrobacterium colony-forming units (c.f.u.) in the tissues was analyzed immediately after infiltration (white bars) and after 24 h (gray bars). EFR and eJMC were used as positive and negative controls, respectively. For each receptor, three samples were analyzed in five independent experiments. Asterisks indicate statistically significant differences against control (Col-0 for WAK1 plants and Col-0 efr for WEG and EWAK plants). (B) Lesion development in Arabidopsis wild type (Col-0) and mutant Col-0 efr plants and in transgenic plants expressing WAK1, WEG and EWAK plants inoculated with B. cinerea at 48 h post-inoculation. Values are means±s.e.m. of at least 16 lesions. The same experiment was performed in a second independent transgenic line expressing WAK1 with similar results. Asterisks indicate statistically significant differences against control (Col-0 for WAK1 plants and Col-0 efr for WEG and EWAK plants).

[6] = tested on: Pectobacterium carotovorum subsp. carotovorum; assay: Infection assay with Pectobacterium carotovorum on transgenic Arabidopsis leaves; format: in vivo; settings: transgenic Arabidopsis vs Col-0 or Col-0 efr, 24 h, 5×10^7 CFU/ml
Method: Inoculum concentration was 5×10^7 CFU/ml). Values are means±SE of at least 16 lesions. Asterisks indicate statistically significant differences against control plants (Col-0 or Col-0 efr), according to Student's t test (*, p<0.0005).
Agrobacterium tumefaciens GV3101 strain infections was performed as described in Katagiri et al., (2002) and using a concentration of Agrobacterium corresponding at an OD600 of 1.0 in 10 mM MgCl2 and 600 μM acetosyringone. After 24 h of infiltration, serial dilution of Agrobacterium colonies were deposited on LB agar supplemented with gentamycin and rifampicin and grown for 2-3 days at 28° C. in the dark. At least 5 independent plants and 3 different leaves by plant, were used per experiment. Pectobacterium carotovorum subsp. carotovorum infections Pectobacterium carotovorum subsp. carotovorum (formely Erwinia carotovora; Gardan et al., 2003) (strain DMSZ 30169) was obtained from DSMZ GmbH (Germany). A liquid colture using 10 ml LB medium was prepared. […]
For infection, fully developed leaves of 4 week old Arabidopsis plants were detached and placed in 0.8% agar Petri dishes. […] Symptoms were scored measuring the area of macerated tissue after 24 hour post inoculation at 22° C. and 12 h photoperiod. Area was measured by ImageJ software. […]

| Molecule | H2O2 production induced by flg22 [1] | callose deposition induced by flg22 [1] | expression of RetOx, CYP81F2 and PAD3 induced by flg22 [2] | growth inhibition of transgenic seedlings treated with flg22 [3] | development of disease symptoms / susceptibility to Pst DC3000 [4] | numbers of bacteria in leaves [4] | induction of At3g22270 and At4g37640 by other elicitors ([5]; 3 h) | induction of At3g22270 and At4g37640 by OGs ([5]; OGs 25 μg/ml, 3 h) | constitutive activation of At3g22270 and At4g37640 expression ([5]; water controls) | resistance to B. cinerea infection (B. cinerea) | resistance to Pectobacterium carotovorum subsp. carotovorum [6] |
| --- | --- | --- | --- | --- | --- | --- | --- | --- | --- | --- | --- |
| eJMC: chimera (Arg806FLS2-Val650EFR): LRR and eJM domains of FLS2 fused upstream of TM, iJM and kinase domains of EFR, GFP-fused | induced | induced | induced | did not show growth inhibition | Ws-0 plants showed a faster and more severe development of disease symptoms; also recorded: less susceptible | higher numbers of bacteria in Ws-0 | – | – | – | – | – |
| FLS2 [reference compound] | induced | induced | induced | did not show growth inhibition | Ws-0 plants showed a faster and more severe development of disease symptoms | higher numbers of bacteria in Ws-0 | – | – | – | – | – |
| B1 | – | – | – | – | – | – | not by other elicitors | induced by OGs | No constitutive activation | increased resistance; also recorded: confers resistance | increased resistance; also recorded: confers resistance |
